Data: ChEMBL document CHEMBL1201862, “PubChem BioAssay data set” (2004)
Activity calls are given as the source filed them.

Key:
[1] = target: T1, Apoptotic protease-activating factor 1 (Homo sapiens, UniProt O14727); format: functional
T1 sequence (O14727 whole entry): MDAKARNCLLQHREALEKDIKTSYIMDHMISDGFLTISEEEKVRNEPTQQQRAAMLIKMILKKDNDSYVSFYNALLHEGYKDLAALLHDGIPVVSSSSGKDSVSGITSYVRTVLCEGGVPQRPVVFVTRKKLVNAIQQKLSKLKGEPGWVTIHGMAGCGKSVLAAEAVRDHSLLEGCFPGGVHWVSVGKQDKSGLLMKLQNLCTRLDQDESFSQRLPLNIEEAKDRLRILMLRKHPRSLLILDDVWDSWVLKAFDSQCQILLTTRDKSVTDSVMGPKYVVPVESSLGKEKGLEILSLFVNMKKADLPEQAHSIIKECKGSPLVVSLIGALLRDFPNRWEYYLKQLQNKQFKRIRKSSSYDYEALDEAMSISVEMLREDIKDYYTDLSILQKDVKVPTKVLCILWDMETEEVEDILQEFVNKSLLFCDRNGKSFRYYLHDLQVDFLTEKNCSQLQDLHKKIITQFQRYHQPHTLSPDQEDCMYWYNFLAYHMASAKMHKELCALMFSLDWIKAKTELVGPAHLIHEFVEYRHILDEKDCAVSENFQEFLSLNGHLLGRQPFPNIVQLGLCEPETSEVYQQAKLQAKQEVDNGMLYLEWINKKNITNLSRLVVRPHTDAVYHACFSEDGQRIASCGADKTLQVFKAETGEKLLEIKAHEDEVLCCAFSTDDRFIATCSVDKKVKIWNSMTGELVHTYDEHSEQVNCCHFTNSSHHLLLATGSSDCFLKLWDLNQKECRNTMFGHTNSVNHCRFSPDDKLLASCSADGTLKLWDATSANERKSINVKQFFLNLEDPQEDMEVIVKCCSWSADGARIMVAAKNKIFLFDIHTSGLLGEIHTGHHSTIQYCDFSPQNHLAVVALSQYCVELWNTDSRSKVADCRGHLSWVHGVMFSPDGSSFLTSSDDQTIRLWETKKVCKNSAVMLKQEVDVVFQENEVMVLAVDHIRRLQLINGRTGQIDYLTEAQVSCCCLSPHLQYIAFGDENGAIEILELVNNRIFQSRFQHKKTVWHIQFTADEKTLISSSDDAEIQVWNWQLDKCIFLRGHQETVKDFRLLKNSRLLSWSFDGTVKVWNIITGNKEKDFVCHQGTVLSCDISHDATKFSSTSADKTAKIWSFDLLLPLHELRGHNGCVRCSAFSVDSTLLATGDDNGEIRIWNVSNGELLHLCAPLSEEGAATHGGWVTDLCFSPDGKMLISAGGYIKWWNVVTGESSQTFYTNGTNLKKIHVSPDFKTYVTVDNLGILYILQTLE

Protein RecA = target: T2, Protein RecA (Mycobacterium tuberculosis, UniProt P9WHJ3); experiment: Fluorescence Cell-Free Homogeneous Dose Retest to Identify Inhibitors of RecA-Intein Splicing Activity. [Related pubchem assays (depositor defined):AID2097, AID2223, AID489010, AID492950]; format: functional
T2 sequence (P9WHJ3 whole entry): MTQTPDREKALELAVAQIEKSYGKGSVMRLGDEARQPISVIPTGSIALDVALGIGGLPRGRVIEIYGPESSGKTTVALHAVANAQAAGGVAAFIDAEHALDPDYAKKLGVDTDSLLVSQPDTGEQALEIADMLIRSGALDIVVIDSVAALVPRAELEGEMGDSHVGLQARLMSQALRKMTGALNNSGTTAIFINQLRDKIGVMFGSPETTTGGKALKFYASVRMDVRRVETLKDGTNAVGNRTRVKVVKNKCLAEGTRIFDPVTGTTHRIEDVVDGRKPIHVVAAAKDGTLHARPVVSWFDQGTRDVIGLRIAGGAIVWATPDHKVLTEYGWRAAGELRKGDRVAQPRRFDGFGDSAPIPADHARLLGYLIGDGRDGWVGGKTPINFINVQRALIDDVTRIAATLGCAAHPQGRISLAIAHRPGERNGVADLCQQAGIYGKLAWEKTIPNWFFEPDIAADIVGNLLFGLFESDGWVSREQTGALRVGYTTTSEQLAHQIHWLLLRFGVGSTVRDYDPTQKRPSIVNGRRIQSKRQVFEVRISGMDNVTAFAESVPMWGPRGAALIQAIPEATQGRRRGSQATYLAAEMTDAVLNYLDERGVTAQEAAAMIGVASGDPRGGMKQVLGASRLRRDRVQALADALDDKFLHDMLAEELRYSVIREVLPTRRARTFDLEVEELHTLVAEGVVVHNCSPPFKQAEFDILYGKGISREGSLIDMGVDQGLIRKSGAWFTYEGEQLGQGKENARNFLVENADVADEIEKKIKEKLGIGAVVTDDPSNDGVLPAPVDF

[2] = target: T3, Replicative DNA helicase DnaB (Mycobacterium tuberculosis, UniProt P9WMR3); experiment: DnaB intein splicing inhibitors, dose response, biochemical, cell-free fluorescence (AID 449749); format: functional
T3 sequence (P9WMR3 whole entry): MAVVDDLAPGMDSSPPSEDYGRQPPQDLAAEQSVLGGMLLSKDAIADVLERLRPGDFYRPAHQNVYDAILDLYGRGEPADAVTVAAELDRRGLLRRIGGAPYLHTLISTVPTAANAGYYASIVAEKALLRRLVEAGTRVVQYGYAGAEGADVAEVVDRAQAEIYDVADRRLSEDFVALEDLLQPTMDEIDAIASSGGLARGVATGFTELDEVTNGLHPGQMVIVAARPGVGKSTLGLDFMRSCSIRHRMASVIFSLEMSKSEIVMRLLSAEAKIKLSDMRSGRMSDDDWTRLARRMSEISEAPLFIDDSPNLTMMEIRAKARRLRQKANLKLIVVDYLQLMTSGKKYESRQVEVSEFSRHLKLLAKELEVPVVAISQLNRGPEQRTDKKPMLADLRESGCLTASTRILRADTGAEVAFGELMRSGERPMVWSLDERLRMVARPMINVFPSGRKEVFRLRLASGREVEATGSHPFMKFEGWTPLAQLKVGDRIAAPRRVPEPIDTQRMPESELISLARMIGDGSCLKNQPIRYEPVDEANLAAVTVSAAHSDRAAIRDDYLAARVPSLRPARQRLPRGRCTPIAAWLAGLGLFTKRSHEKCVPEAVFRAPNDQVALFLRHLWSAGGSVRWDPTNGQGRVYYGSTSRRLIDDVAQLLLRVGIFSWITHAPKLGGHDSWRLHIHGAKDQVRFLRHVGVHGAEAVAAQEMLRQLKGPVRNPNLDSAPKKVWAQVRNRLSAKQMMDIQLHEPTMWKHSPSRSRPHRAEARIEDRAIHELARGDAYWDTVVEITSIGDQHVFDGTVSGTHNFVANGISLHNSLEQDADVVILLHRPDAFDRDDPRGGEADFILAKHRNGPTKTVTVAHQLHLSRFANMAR

[3] = target: Serine/threonine-protein phosphatase (Homo sapiens, UniProt Q9BPW0); experiment: PP5 phosphatase inhibitors, dose response, biochemical, fluorescence (AID 2395)
Sequence of Serine/threonine-protein phosphatase (Q9BPW0 whole entry): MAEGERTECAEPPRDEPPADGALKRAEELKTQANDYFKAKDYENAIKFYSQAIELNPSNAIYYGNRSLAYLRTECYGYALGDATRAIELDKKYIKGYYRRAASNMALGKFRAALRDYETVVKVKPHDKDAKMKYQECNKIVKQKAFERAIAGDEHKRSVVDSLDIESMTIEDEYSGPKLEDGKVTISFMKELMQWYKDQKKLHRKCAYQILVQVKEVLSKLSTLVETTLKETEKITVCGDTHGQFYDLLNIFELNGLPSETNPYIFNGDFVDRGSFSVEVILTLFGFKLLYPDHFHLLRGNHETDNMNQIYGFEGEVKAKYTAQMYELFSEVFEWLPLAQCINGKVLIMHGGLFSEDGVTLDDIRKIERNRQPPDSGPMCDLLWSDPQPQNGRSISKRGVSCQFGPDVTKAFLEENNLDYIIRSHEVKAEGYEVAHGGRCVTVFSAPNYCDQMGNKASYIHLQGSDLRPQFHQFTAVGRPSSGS

Row | SMILES | IC50 [1] | EC50 (Protein RecA) | AC50 [2] | IC50 [3]
1 | CCCCCCCCCCOC(=O)C[n+]1c(COc2ccccc2C)n(C)c2ccccc21 | 8.53 µM (active) | 7.26 µM (active) | 3.01 µM (active) | 
2 | Oc1nc(Nc2ccccc2)cc2ccccc12 | 3.31 µM (active) | 1.9 µM (active) | > 380 µM (inactive) | 31.6 µM (not active)
